The assay has as its system psoriasis patients. The assay is described as follows: Human Psoriasis Study of WP1220 and CABE (pilot study). The note with it: topical treatment; psoriasis patients not responsive to current standard therapies. The format is in vivo. The protocol:
Human Psoriasis Study of WP1220 and CABE—The compounds WP1220 and CABE were tested in a pilot study of psoriasis patients who were not responsive to current standard therapies.

`C[C@H](NC(=O)/C(C#N)=C/C=C/c1cccc(Br)n1)c1ccccc1` [WP1220, (2E,4E)-5-(6-bromopyridin-2-yl)-2-cyano-N—((S)-1-phenylethyl)penta-2,4-dienamide]: the “patients responded with substantial improvement or complete resolution of psoratic lesions” value is listed as “seven out of seven”.
Consider `O=C(/C=C/c1ccc(O)c(O)c1)OCc1ccccc1` [CABE, (E)-Benzyl 3-(3,4-dihydroxyphenyl)acrylate], for which the “patients responded with substantial improvement or complete resolution of psoratic lesions” value is “five out of seven”.

The values are drawn from patent publication US20110275577A1, “METHODS OF TREATING DERMATOLOGIC, GYNECOLOGIC, AND GENITAL DISORDERS WITH CAFFEIC ACID ANALOGS” (Moleculin, LLC, priority 2010, published 2011).
